# According to patent US10231453B2, “5-substituted imidazole derivatives” (BAYER CROPSCIENCE AKTIENGESELLSCHAFT, priority 2015, dated 2019):
# Tested on: not listed separately
# Experiment: Measurement of LogP values by HPLC on reversed phase columns (EEC directive 79/831 Annex V.A8)
# Format: physicochemical
# Conditions: method [a]: LC-UV, acidic range, 0.1% formic acid in water and acetonitrile as eluent; Table 1
# Method: Measurement of Log P values was performed as outlined above.
row,SMILES,chromatographic logP
1,N#Cc1cncn1CC(O)(Cc1ccccc1F)C1(F)CC1 (stereo not shown) [Example I-99],2.01
2,OC(Cc1ccccc1Cl)(Cn1cncc1Br)C1(Cl)CC1 (stereo not shown) [Example I-04],2.27
3,N#Cc1cncn1CC(O)(Cc1ccc(Br)cc1F)C1(Cl)CC1 (stereo not shown) [Example I-42],3.24

# Tested on: Alternaria brassicae
# Experiment: In vivo preventive test on Alternaria brassicae (leaf spot on radish), Examples A and R1
# Conditions: Alternaria brassicae, 144 h, 500 ppm of active ingredient, preventive spray, evaluated 6 days after inoculation, read-out: efficacy
row,SMILES,pest or weed control at 500 ppm [%]
1,N#Cc1cncn1CC(O)(Cc1ccccc1F)C1(F)CC1 (stereo not shown) [Example I-99],80 to 89
2,OC(Cc1ccccc1Cl)(Cn1cncc1Br)C1(Cl)CC1 (stereo not shown) [Example I-04],70 to 79

# Same assay, conditions: Alternaria brassicae, 144 h, Example R1, rate of application 100 ppm, read-out: Efficacy in %
row,SMILES,pest or weed control at 100 ppm [%]
1,OC(Cc1ccccc1Cl)(Cn1cncc1Br)C1(Cl)CC1 (stereo not shown) [Example I-04],20

# Same assay, conditions: Alternaria brassicae, 144 h, Example R1, rate of application 500 ppm, read-out: Efficacy in %
row,SMILES,pest or weed control at 500 ppm [%]
1,OC(Cc1ccccc1Cl)(Cn1cncc1Br)C1(Cl)CC1 (stereo not shown) [Example I-04],70

# Tested on: Botrytis cinerea
# Experiment: In vivo preventive test on Botrytis cinerea (grey mould) on gherkin, Examples B, Q1 and R2
# Conditions: Botrytis cinerea, 500 ppm of active ingredient, preventive spray, evaluated 4 to 5 days after inoculation, read-out: efficacy
row,SMILES,pest or weed control at 500 ppm [%]
1,N#Cc1cncn1CC(O)(Cc1ccccc1F)C1(F)CC1 (stereo not shown) [Example I-99],90 to 100
2,OC(Cc1ccccc1Cl)(Cn1cncc1Br)C1(Cl)CC1 (stereo not shown) [Example I-04],90 to 100
3,N#Cc1cncn1CC(O)(Cc1ccc(Br)cc1F)C1(Cl)CC1 (stereo not shown) [Example I-42],80 to 89

# Same assay, conditions: Botrytis cinerea, Example R2, rate of application 100 ppm, read-out: Efficacy in %
row,SMILES,pest or weed control at 100 ppm [%]
1,OC(Cc1ccccc1Cl)(Cn1cncc1Br)C1(Cl)CC1 (stereo not shown) [Example I-04],90

# Same assay, conditions: Botrytis cinerea, Example R2, rate of application 500 ppm, read-out: Efficacy in %
row,SMILES,pest or weed control at 500 ppm [%]
1,OC(Cc1ccccc1Cl)(Cn1cncc1Br)C1(Cl)CC1 (stereo not shown) [Example I-04],100

# Tested on: Puccinia recondita
# Experiment: In vivo preventive test on Puccinia recondita (brown rust on wheat), Examples C and R3
# Conditions: Puccinia recondita, 264 h; 500 ppm of active ingredient; wheat, preventive spray, evaluated 11 days after inoculation; read-out: efficacy
row,SMILES,pest or weed control at 500 ppm [%]
1,N#Cc1cncn1CC(O)(Cc1ccccc1F)C1(F)CC1 (stereo not shown) [Example I-99],90 to 100
2,OC(Cc1ccccc1Cl)(Cn1cncc1Br)C1(Cl)CC1 (stereo not shown) [Example I-04],90 to 100
3,N#Cc1cncn1CC(O)(Cc1ccc(Br)cc1F)C1(Cl)CC1 (stereo not shown) [Example I-42],90 to 100

# Same assay, conditions: Puccinia recondita, 264 h; Example R3, wheat, preventive spray, 100 ppm, evaluated 11 days after inoculation; read-out: Efficacy in %
row,SMILES,pest or weed control at 100 ppm [%]
1,OC(Cc1ccccc1Cl)(Cn1cncc1Br)C1(Cl)CC1 (stereo not shown) [Example I-04],88

# Same assay, conditions: Puccinia recondita, 264 h; Example R3, wheat, preventive spray, 500 ppm, evaluated 11 days after inoculation; read-out: Efficacy in %
row,SMILES,pest or weed control at 500 ppm [%]
1,OC(Cc1ccccc1Cl)(Cn1cncc1Br)C1(Cl)CC1 (stereo not shown) [Example I-04],94

# Tested on: Pyrenophora teres
# Experiment: In vivo preventive test on Pyrenophora teres (net blotch on barley), Examples D, Q2 and R4
# Conditions: Pyrenophora teres, 336 h, 500 ppm of active ingredient, preventive spray, evaluated 14 days after inoculation, read-out: efficacy
row,SMILES,pest or weed control at 500 ppm [%]
1,N#Cc1cncn1CC(O)(Cc1ccccc1F)C1(F)CC1 (stereo not shown) [Example I-99],90 to 100
2,OC(Cc1ccccc1Cl)(Cn1cncc1Br)C1(Cl)CC1 (stereo not shown) [Example I-04],90 to 100
3,N#Cc1cncn1CC(O)(Cc1ccc(Br)cc1F)C1(Cl)CC1 (stereo not shown) [Example I-42],70 to 79

# Same assay, conditions: Pyrenophora teres, 336 h, Example R4, rate of application 100 ppm, read-out: Efficacy in %
row,SMILES,pest or weed control at 100 ppm [%]
1,OC(Cc1ccccc1Cl)(Cn1cncc1Br)C1(Cl)CC1 (stereo not shown) [Example I-04],71

# Same assay, conditions: Pyrenophora teres, 336 h, Example R4, rate of application 500 ppm, read-out: Efficacy in %
row,SMILES,pest or weed control at 500 ppm [%]
1,OC(Cc1ccccc1Cl)(Cn1cncc1Br)C1(Cl)CC1 (stereo not shown) [Example I-04],93

# Tested on: Septoria tritici
# Experiment: In vivo preventive test on Septoria tritici (leaf spot on wheat), Examples E, Q3 and R5
# Conditions: Zymoseptoria tritici, 576 h, 500 ppm of active ingredient; wheat, preventive spray, evaluated 24 days after inoculation; read-out: efficacy
row,SMILES,pest or weed control at 500 ppm [%]
1,N#Cc1cncn1CC(O)(Cc1ccccc1F)C1(F)CC1 (stereo not shown) [Example I-99],90 to 100
2,OC(Cc1ccccc1Cl)(Cn1cncc1Br)C1(Cl)CC1 (stereo not shown) [Example I-04],90 to 100
3,N#Cc1cncn1CC(O)(Cc1ccc(Br)cc1F)C1(Cl)CC1 (stereo not shown) [Example I-42],90 to 100

# Same assay, conditions: Zymoseptoria tritici, 576 h, Example R5, wheat, preventive spray, 100 ppm, evaluated 24 days after inoculation; read-out: Efficacy in %
row,SMILES,pest or weed control at 100 ppm [%]
1,OC(Cc1ccccc1Cl)(Cn1cncc1Br)C1(Cl)CC1 (stereo not shown) [Example I-04],97

# Same assay, conditions: Zymoseptoria tritici, 576 h, Example R5, wheat, preventive spray, 500 ppm, evaluated 24 days after inoculation; read-out: Efficacy in %
row,SMILES,pest or weed control at 500 ppm [%]
1,OC(Cc1ccccc1Cl)(Cn1cncc1Br)C1(Cl)CC1 (stereo not shown) [Example I-04],100

# Tested on: Sphaerotheca fuliginea
# Experiment: In vivo preventive test on Sphaerotheca fuliginea (powdery mildew on cucurbits), Examples F and R6
# Conditions: Podosphaera fuliginea, 360 h; 500 ppm of active ingredient; gherkin, preventive spray, evaluated 15 days after inoculation; read-out: efficacy
row,SMILES,pest or weed control at 500 ppm [%]
1,N#Cc1cncn1CC(O)(Cc1ccccc1F)C1(F)CC1 (stereo not shown) [Example I-99],90 to 100
2,OC(Cc1ccccc1Cl)(Cn1cncc1Br)C1(Cl)CC1 (stereo not shown) [Example I-04],90 to 100
3,N#Cc1cncn1CC(O)(Cc1ccc(Br)cc1F)C1(Cl)CC1 (stereo not shown) [Example I-42],90 to 100

# Same assay, conditions: Podosphaera fuliginea, 360 h; Example R6, gherkin, preventive spray, 100 ppm, evaluated 15 days after inoculation; read-out: Efficacy in %
row,SMILES,pest or weed control at 100 ppm [%]
1,OC(Cc1ccccc1Cl)(Cn1cncc1Br)C1(Cl)CC1 (stereo not shown) [Example I-04],100

# Same assay, conditions: Podosphaera fuliginea, 360 h; Example R6, gherkin, preventive spray, 500 ppm, evaluated 15 days after inoculation; read-out: Efficacy in %
row,SMILES,pest or weed control at 500 ppm [%]
1,OC(Cc1ccccc1Cl)(Cn1cncc1Br)C1(Cl)CC1 (stereo not shown) [Example I-04],100

# Tested on: Uromyces appendiculatus
# Experiment: In vivo preventive test on Uromyces appendiculatus (bean rust), Examples G and R7
# Conditions: 264 h, 500 ppm of active ingredient, bean, preventive spray, evaluated 11 days after inoculation, read-out: efficacy
row,SMILES,pest or weed control at 500 ppm [%]
1,N#Cc1cncn1CC(O)(Cc1ccccc1F)C1(F)CC1 (stereo not shown) [Example I-99],90 to 100
2,OC(Cc1ccccc1Cl)(Cn1cncc1Br)C1(Cl)CC1 (stereo not shown) [Example I-04],90 to 100
3,N#Cc1cncn1CC(O)(Cc1ccc(Br)cc1F)C1(Cl)CC1 (stereo not shown) [Example I-42],90 to 100

# Same assay, conditions: 264 h, Example R7, bean, preventive spray, 100 ppm, evaluated 11 days after inoculation, read-out: Efficacy in %
row,SMILES,pest or weed control at 100 ppm [%]
1,OC(Cc1ccccc1Cl)(Cn1cncc1Br)C1(Cl)CC1 (stereo not shown) [Example I-04],100

# Same assay, conditions: 264 h, Example R7, bean, preventive spray, 500 ppm, evaluated 11 days after inoculation, read-out: Efficacy in %
row,SMILES,pest or weed control at 500 ppm [%]
1,OC(Cc1ccccc1Cl)(Cn1cncc1Br)C1(Cl)CC1 (stereo not shown) [Example I-04],100

# Tested on: Alternaria solani
# Experiment: In vivo preventive Alternaria test (tomatoes), Example H
# Conditions: 72 h, 100 ppm of active ingredient, preventive spray, evaluated 3 days after inoculation, read-out: efficacy
row,SMILES,pest or weed control at 100 ppm [%]
1,N#Cc1cncn1CC(O)(Cc1ccccc1F)C1(F)CC1 (stereo not shown) [Example I-99],90 to 100
2,OC(Cc1ccccc1Cl)(Cn1cncc1Br)C1(Cl)CC1 (stereo not shown) [Example I-04],90 to 100
3,N#Cc1cncn1CC(O)(Cc1ccc(Br)cc1F)C1(Cl)CC1 (stereo not shown) [Example I-42],70 to 79

# Tested on: Phakopsora pachyrhizi
# Experiment: In vivo preventive Phakopsora test (soybeans), Example I
# Conditions: 168 h, 100 ppm of active ingredient, preventive spray, evaluated 7 days after inoculation, read-out: efficacy
row,SMILES,pest or weed control at 100 ppm [%]
1,N#Cc1cncn1CC(O)(Cc1ccccc1F)C1(F)CC1 (stereo not shown) [Example I-99],90 to 100
2,OC(Cc1ccccc1Cl)(Cn1cncc1Br)C1(Cl)CC1 (stereo not shown) [Example I-04],90 to 100
3,N#Cc1cncn1CC(O)(Cc1ccc(Br)cc1F)C1(Cl)CC1 (stereo not shown) [Example I-42],90 to 100

# Tested on: Blumeria graminis fsp. hordei
# Experiment: In vivo preventive Blumeria test (barley), Example K
# Conditions: 168 h, 500 ppm of active ingredient, preventive spray, evaluated 7 days after inoculation, read-out: efficacy
# From the text: After the spray coating has been dried, the plants are dusted with spores of Blumeria graminis fsp. hordei.
row,SMILES,pest or weed control at 500 ppm [%]
1,N#Cc1cncn1CC(O)(Cc1ccccc1F)C1(F)CC1 (stereo not shown) [Example I-99],90 to 100
2,OC(Cc1ccccc1Cl)(Cn1cncc1Br)C1(Cl)CC1 (stereo not shown) [Example I-04],90 to 100
3,N#Cc1cncn1CC(O)(Cc1ccc(Br)cc1F)C1(Cl)CC1 (stereo not shown) [Example I-42],90 to 100

# Tested on: Fusarium graminearum
# Experiment: whole plant or invertebrate
# Format: in vivo
# Conditions: in Hordeum vulgare, 120 h, read-out: efficacy
row,SMILES,pest or weed control at 500 ppm [%]
1,N#Cc1cncn1CC(O)(Cc1ccccc1F)C1(F)CC1 (stereo not shown) [Example I-99],90 to 100
2,OC(Cc1ccccc1Cl)(Cn1cncc1Br)C1(Cl)CC1 (stereo not shown) [Example I-04],70 to 79
3,N#Cc1cncn1CC(O)(Cc1ccc(Br)cc1F)C1(Cl)CC1 (stereo not shown) [Example I-42],80 to 89

# Tested on: Leptosphaeria nodorum
# Experiment: In vivo preventive Leptosphaeria nodorum test (wheat), Example N
# Conditions: Parastagonospora nodorum, 192 h, 500 ppm of active ingredient, preventive spray, evaluated 8 days after inoculation, read-out: efficacy
# From the text: After the spray coating has been dried, the plants are sprayed with a spore suspension of Leptosphaeria nodorum.
row,SMILES,pest or weed control at 500 ppm [%]
1,N#Cc1cncn1CC(O)(Cc1ccccc1F)C1(F)CC1 (stereo not shown) [Example I-99],90 to 100
2,OC(Cc1ccccc1Cl)(Cn1cncc1Br)C1(Cl)CC1 (stereo not shown) [Example I-04],90 to 100
3,N#Cc1cncn1CC(O)(Cc1ccc(Br)cc1F)C1(Cl)CC1 (stereo not shown) [Example I-42],90 to 100

# Tested on: Fusarium nivale (var. majus)
# Experiment: In vivo preventive Fusarium nivale (var. majus) test (wheat), Example O
# Conditions: Microdochium nivale, 120 h, 500 ppm of active ingredient, preventive spray, evaluated 5 days after inoculation, read-out: efficacy
# From the text: After the spray coating has been dried, the plants are slightly injured by using a sandblast and afterwards they are sprayed with a conidia suspension of Fusarium nivale (var. majus).
row,SMILES,pest or weed control at 500 ppm [%]
1,N#Cc1cncn1CC(O)(Cc1ccccc1F)C1(F)CC1 (stereo not shown) [Example I-99],90 to 100
2,OC(Cc1ccccc1Cl)(Cn1cncc1Br)C1(Cl)CC1 (stereo not shown) [Example I-04],90 to 100
3,N#Cc1cncn1CC(O)(Cc1ccc(Br)cc1F)C1(Cl)CC1 (stereo not shown) [Example I-42],80 to 89

# Tested on: Pyricularia oryzae
# Experiment: whole plant or invertebrate
# Format: in vivo
# Conditions: 192 h, read-out: efficacy
row,SMILES,pest or weed control at 500 ppm [%]
1,N#Cc1cncn1CC(O)(Cc1ccccc1F)C1(F)CC1 (stereo not shown) [Example I-99],80 to 89
2,OC(Cc1ccccc1Cl)(Cn1cncc1Br)C1(Cl)CC1 (stereo not shown) [Example I-04],90 to 100
3,N#Cc1cncn1CC(O)(Cc1ccc(Br)cc1F)C1(Cl)CC1 (stereo not shown) [Example I-42],80 to 89

# Tested on: Venturia inaequalis
# Experiment: In vivo preventive Venturia test (apples), Example J
# Conditions: 240 h, read-out: efficacy
# Method: After the spray coating has dried on, the plants are inoculated with an aqueous conidia suspension of the causal agent of apple scab (Venturia inaequalis) and then remain for 1 day in an incubation cabinet at approximately 20° C. and a relative atmospheric humidity of 100%.
# The plants are then placed in a greenhouse at approximately 21° C. and a relative atmospheric humidity of approximately 90%.
# The test is evaluated 10 days after the inoculation.
row,SMILES,pest or weed control at 100 ppm [%]
1,N#Cc1cncn1CC(O)(Cc1ccccc1F)C1(F)CC1 (stereo not shown) [Example I-99],80 to 89
2,OC(Cc1ccccc1Cl)(Cn1cncc1Br)C1(Cl)CC1 (stereo not shown) [Example I-04],90 to 100
3,N#Cc1cncn1CC(O)(Cc1ccc(Br)cc1F)C1(Cl)CC1 (stereo not shown) [Example I-42],80 to 89
